Assay results reported in ChEMBL document CHEMBL1201862, “PubChem BioAssay data set” (2004).
Activity calls are given as the source filed them. Rule as the data show it, for most assays here: actives have a measured IC50 and inactives only a lower limit.

Tests used:
Type in all cases: functional
[1] = target: Ras and Rab interactor 1/Tyrosine-protein kinase ABL1 (Homo sapiens, UniProt P00519+Q13671);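 also: biochemical TR-FRET dose-response test measuring inhibition of binding between Rin1 and Abl proteins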
[2] = M. tuberculosis H37Rv growth inhibitors, H37Rv strain (AID 1626)
[3] = target: T1, Mitochondrial peptide methionine sulfoxide reductase (Bos taurus, UniProt P54149); assay: Absorbance-based biochemical high throughput dose response assay for activators of Methionine sulfoxide reductase A (MsrA).
T1 sequence (P54149 whole entry): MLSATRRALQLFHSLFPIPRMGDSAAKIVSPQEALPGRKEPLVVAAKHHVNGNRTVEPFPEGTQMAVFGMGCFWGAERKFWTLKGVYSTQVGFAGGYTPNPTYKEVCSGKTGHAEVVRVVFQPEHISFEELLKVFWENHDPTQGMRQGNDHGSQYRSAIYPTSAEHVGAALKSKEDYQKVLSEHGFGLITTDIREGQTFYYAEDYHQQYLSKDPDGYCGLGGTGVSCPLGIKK

[4] = target: Vascular endothelial growth factor receptor 2 (Homo sapiens, UniProt P35968)
Aurora kinase B = Aurora kinase B (Homo sapiens, UniProt Q96GD4)
Aurora kinase A = target: T2, Aurora kinase A (Homo sapiens, UniProt O14965);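 also: value from the Navigating the Kinome kinase panel profiling, panel entry STK6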
T2 sequence (O14965 whole entry): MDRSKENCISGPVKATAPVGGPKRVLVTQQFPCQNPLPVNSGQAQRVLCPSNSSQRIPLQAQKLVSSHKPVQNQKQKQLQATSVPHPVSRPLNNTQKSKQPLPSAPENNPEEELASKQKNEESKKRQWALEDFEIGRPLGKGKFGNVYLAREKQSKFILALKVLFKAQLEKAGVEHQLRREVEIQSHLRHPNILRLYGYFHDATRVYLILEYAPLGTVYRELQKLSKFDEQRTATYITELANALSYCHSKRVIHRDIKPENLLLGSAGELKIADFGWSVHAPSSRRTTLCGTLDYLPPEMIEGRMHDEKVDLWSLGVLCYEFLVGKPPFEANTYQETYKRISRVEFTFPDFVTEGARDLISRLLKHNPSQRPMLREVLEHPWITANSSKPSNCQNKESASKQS

[5] = target: T3, Sentrin-specific protease 6 (Homo sapiens, UniProt Q9GZR1); assay: SENP6 protease inhibitors, SAR follow-up, biochemical, luminescence, set 2 (AID 588598)
T3 sequence (Q9GZR1 whole entry): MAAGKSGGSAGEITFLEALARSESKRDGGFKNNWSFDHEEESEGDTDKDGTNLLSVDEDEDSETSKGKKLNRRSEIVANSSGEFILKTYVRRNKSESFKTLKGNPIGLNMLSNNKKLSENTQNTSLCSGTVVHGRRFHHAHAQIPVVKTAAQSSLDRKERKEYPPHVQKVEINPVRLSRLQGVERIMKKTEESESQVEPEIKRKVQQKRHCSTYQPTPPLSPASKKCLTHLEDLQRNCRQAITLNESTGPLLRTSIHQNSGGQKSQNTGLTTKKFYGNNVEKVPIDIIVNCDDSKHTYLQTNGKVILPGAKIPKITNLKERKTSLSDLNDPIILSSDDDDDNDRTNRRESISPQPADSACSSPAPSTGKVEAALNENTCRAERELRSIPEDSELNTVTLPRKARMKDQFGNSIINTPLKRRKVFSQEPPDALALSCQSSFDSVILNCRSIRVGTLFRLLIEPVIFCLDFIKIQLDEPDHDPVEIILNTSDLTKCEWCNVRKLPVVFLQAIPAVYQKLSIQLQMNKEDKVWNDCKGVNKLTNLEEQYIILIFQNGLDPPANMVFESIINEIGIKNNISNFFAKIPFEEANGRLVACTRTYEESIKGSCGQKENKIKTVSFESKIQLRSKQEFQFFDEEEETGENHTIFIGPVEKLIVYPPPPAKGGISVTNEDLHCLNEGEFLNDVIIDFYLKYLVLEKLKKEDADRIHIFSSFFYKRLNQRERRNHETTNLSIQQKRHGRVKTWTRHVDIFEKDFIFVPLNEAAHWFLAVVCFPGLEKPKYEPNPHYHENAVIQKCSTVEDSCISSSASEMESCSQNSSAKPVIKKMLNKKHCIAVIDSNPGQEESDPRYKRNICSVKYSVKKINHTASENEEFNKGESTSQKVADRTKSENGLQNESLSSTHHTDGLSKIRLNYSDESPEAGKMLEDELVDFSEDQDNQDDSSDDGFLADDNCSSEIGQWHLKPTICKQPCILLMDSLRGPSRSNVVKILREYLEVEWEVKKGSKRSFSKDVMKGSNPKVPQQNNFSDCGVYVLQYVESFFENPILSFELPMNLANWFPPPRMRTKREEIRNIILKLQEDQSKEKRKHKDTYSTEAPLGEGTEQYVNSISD

Caspase-3 [6] = target: T4, Caspase-3 (Homo sapiens, UniProt P42574); assay: caspase-3 inhibitors as off-family protease, SAR follow-up, selectivity assay for SENP protease inhibitor project, biochemical, luminescence, set 2 (AID 588599)
T4 sequence (P42574 whole entry): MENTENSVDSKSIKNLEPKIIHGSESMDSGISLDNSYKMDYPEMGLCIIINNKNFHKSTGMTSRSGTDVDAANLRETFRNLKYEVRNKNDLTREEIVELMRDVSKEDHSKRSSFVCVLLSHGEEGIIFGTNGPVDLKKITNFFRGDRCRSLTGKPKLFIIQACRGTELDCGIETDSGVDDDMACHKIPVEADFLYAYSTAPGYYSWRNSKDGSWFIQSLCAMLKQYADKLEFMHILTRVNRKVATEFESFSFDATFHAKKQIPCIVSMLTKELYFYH

[7] = target: T5, Sentrin-specific protease 7 (Homo sapiens, UniProt Q9BQF6); assay: SENP7 protease inhibitors, SAR follow-up, biochemical, luminescence, set 2 (AID 588600)
T5 sequence (Q9BQF6 whole entry): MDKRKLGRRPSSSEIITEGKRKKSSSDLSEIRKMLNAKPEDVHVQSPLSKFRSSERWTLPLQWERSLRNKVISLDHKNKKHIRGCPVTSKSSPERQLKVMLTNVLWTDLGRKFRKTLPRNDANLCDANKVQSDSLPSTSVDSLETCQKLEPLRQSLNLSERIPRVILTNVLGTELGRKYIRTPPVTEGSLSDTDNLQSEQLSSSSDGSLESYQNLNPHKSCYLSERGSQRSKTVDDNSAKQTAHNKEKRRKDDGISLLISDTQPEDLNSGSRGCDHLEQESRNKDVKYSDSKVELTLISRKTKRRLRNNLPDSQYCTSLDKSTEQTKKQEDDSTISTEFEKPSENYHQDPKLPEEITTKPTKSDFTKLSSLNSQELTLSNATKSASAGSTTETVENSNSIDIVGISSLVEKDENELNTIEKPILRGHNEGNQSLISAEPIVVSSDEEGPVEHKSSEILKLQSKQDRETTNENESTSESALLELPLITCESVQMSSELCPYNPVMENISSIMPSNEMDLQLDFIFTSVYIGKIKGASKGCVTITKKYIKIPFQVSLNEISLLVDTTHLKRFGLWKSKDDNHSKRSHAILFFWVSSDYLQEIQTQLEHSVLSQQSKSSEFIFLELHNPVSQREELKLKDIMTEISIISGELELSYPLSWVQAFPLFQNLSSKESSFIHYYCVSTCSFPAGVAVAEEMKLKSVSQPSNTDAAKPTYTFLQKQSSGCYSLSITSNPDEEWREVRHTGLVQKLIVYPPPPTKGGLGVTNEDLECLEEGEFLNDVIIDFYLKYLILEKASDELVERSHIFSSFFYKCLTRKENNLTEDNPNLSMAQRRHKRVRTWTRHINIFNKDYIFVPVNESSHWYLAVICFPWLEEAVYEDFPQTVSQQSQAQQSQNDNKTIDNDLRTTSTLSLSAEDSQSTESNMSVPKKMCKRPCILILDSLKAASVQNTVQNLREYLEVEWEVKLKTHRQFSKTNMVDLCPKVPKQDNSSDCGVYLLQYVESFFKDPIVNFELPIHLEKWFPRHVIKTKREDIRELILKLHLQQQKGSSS

[8] = target: T6, Sentrin-specific protease 8 (Homo sapiens, UniProt Q96LD8); assay: SENP8 protease inhibitors, SAR follow-up, biochemical, luminescence, set 2 (AID 588601)
T6 sequence (Q96LD8 whole entry): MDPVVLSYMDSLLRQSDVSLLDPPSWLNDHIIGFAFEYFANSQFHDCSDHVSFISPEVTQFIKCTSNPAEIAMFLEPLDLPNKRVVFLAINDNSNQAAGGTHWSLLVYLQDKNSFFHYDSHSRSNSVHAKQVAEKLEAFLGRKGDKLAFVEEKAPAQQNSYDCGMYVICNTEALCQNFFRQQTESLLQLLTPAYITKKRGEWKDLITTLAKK

Caspase-3 [9] = target: T4, Caspase-3; assay: SAR Analysis of small molecule inhibitors of Sentrin-specific proteases (SENPs) using a Caspase-3 Selectivity assay. [Related pubchem assays (depositor defined):AID2540, AID2599, AID434973, AID489001]
[10] = target: T5, Sentrin-specific protease 7; assay: SENP7 protease inhibitors, SAR follow-up, biochemical, luminescence (AID 504497)
[11] = target: T6, Sentrin-specific protease 8; assay: SENP8 protease inhibitors, SAR follow-up, biochemical, luminescence (AID 504501)
[12] = target: T3, Sentrin-specific protease 6; assay: SAR Analysis of small molecule inhibitors of Sentrin-specific protease 6 (SENP6) using a Luminescent assay. [Related pubchem assays (depositor defined):AID2582, AID2599]
[13] = target: T7, Apoptotic protease-activating factor 1 (Homo sapiens, UniProt O14727); assay: SAR analysis of small molecule Activators of Apaf-1 in a Fluorescent assay.; details: read-out: EC50_Mean;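 also: caspase-3 cleavage of fluorogenic Rh110 DEVD substrate downstream of apoptosome activation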
T7 sequence (O14727 whole entry): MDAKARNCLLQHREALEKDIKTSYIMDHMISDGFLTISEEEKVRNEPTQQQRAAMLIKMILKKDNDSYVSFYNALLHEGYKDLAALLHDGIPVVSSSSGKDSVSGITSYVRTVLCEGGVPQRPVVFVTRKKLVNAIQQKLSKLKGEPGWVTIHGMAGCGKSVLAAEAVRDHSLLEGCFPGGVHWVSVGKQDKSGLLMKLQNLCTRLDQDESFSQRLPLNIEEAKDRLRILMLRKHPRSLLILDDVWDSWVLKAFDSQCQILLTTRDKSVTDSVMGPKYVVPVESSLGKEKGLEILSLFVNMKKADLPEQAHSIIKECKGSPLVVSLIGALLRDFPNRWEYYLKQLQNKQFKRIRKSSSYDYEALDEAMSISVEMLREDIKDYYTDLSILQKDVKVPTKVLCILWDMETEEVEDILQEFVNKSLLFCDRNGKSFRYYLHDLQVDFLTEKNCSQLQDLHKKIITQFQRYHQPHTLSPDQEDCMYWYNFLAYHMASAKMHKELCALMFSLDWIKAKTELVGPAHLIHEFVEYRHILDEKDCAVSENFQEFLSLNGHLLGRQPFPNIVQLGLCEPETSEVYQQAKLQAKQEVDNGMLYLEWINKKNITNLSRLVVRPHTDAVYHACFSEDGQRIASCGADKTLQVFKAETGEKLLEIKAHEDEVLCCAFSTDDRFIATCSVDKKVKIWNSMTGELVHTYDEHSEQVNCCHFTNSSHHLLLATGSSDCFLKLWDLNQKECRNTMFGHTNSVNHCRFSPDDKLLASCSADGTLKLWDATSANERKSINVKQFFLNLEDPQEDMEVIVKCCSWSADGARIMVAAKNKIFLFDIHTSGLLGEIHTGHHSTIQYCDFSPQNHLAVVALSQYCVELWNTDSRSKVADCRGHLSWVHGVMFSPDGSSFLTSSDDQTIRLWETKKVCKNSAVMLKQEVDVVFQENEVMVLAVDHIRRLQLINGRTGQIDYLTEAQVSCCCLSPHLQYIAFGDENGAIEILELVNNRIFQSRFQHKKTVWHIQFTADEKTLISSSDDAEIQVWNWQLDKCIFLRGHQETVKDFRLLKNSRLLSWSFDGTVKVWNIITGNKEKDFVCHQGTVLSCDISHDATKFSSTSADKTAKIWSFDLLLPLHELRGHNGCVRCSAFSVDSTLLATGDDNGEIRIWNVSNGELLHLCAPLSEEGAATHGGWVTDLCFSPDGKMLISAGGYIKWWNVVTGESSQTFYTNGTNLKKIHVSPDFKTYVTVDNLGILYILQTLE

Sequence of Ras and Rab interactor 1/Tyrosine-protein kinase ABL1 (P00519 whole entry): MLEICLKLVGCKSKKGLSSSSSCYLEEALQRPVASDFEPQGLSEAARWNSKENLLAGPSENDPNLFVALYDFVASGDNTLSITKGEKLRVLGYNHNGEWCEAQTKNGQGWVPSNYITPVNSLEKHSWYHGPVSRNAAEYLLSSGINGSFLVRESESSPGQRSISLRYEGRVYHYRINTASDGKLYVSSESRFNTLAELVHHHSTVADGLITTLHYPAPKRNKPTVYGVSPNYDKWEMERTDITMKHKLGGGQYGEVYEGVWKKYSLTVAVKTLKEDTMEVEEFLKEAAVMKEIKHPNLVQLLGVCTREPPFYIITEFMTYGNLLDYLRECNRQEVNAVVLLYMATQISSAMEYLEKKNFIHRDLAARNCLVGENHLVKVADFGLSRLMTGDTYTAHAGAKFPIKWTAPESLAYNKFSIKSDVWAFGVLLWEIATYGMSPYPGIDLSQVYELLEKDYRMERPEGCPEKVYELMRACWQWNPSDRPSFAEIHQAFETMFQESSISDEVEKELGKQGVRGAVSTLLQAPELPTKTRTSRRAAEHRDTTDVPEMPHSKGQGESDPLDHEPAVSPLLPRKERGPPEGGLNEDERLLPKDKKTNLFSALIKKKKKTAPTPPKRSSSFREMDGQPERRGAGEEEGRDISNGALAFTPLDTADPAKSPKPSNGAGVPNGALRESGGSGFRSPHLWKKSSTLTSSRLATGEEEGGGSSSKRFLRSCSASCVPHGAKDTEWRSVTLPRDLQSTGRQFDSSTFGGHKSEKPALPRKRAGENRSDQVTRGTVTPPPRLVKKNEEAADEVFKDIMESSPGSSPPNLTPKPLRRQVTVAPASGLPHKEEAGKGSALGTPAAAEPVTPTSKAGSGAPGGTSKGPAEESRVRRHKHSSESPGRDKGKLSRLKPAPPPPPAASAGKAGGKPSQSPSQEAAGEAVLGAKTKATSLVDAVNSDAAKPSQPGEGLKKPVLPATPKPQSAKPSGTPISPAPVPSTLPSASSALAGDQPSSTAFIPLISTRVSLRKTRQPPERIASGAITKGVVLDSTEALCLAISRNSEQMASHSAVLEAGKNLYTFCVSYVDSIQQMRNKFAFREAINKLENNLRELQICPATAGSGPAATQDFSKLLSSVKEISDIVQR
Sequence of Ras and Rab interactor 1/Tyrosine-protein kinase ABL1 (Q13671 whole entry): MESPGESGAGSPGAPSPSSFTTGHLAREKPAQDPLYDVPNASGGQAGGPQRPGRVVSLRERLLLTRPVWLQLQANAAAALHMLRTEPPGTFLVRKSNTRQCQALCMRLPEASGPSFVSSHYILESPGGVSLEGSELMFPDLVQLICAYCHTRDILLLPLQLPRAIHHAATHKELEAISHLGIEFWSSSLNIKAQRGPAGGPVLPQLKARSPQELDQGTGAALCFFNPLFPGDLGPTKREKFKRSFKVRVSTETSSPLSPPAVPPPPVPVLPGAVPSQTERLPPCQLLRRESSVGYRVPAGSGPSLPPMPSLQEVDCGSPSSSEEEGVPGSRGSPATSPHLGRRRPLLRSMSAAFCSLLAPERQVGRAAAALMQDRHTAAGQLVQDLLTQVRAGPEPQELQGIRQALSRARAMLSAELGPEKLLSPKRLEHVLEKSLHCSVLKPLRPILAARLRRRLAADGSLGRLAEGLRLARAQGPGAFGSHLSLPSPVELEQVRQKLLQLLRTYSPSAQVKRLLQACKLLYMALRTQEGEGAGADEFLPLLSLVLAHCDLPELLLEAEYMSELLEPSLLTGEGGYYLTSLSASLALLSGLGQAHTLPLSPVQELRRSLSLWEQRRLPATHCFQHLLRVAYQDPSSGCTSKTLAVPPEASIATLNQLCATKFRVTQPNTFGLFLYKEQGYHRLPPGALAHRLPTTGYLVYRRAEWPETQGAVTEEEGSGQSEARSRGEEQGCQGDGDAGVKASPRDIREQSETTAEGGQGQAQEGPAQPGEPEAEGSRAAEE
Sequence of Aurora kinase B (Q96GD4 whole entry): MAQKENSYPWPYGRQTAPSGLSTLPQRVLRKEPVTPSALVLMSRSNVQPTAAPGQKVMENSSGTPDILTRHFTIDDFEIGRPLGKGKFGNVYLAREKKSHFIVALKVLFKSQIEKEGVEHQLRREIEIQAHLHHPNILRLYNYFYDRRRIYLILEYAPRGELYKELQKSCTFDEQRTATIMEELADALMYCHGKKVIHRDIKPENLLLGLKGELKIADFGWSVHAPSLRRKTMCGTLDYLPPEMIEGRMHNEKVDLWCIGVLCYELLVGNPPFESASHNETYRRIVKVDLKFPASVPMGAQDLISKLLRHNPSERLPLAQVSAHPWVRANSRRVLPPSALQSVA
Sequence of Vascular endothelial growth factor receptor 2 (P35968 whole entry): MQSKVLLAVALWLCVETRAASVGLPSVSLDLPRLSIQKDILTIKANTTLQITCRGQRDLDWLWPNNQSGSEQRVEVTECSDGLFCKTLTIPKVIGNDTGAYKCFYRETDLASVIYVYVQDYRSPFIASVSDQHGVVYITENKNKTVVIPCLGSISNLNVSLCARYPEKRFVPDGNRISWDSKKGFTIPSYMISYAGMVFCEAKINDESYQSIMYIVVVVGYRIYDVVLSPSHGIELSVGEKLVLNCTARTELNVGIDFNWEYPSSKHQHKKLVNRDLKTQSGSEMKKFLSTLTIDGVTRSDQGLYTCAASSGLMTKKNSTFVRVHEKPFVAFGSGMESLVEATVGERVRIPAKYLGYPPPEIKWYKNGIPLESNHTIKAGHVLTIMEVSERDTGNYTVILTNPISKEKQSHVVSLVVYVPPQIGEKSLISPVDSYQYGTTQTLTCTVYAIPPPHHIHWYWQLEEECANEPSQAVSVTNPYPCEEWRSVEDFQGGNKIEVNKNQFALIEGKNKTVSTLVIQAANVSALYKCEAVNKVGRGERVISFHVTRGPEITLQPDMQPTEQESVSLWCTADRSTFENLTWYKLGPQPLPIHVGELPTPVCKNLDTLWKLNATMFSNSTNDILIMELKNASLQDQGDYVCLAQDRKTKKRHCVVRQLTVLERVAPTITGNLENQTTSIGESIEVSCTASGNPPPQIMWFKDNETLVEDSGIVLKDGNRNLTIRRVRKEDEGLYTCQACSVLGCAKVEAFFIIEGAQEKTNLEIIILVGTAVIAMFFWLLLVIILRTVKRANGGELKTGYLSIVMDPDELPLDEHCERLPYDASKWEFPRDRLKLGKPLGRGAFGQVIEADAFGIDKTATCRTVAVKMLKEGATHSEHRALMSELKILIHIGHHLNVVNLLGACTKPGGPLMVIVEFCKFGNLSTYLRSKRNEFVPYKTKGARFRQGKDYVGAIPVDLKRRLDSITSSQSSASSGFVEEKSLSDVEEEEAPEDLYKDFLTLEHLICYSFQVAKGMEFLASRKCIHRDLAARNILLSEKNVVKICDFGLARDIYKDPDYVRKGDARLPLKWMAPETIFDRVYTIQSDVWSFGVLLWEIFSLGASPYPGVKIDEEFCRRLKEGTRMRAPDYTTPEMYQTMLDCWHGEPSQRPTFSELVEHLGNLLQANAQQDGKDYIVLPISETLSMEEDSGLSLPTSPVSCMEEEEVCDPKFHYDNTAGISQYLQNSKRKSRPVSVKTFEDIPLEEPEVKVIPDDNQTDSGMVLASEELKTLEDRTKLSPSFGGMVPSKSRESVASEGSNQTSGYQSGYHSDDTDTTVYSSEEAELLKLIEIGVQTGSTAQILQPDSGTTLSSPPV

For `CCC(C)(C)n1nnnc1C(c1cccnc1)N1CCCc2ccccc21` (stereo not drawn), the IC50 [1] was 6.9 µM (active).
In the case of `CCOc1ccc(NC(C(=O)Nc2cccc(C(C)=O)c2)c2ccccc2)cc1` (stereo not drawn), the IC50 [2] was > 100 µM (active) and the EC50 [3] was > 104 µM (inactive).
With `CCCS(=O)(=O)Nc1ccc2c(c1)C(=NO)c1ccccc1-2` the Ki [4] was 1 µM (active), the Ki (Aurora kinase B) was 10 nM (active) and the Ki (Aurora kinase A) was 2 µM (active).
With `O=C(N/N=C\c1c[nH]c2ccccc12)c1cccs1` the IC50 [5] was 43.3 µM (active), the IC50 (Caspase-3 [6]) was 75.5 µM (active) and the IC50 [7] was 34.4 µM (active). The IC50 [8] was 40.8 µM (active).
For `O=C(Nc1nc2ccc(Cl)cc2s1)c1sccc1Cl`, the IC50 [5] was 15.4 µM (active), the IC50 (Caspase-3 [9]) was 0.73 µM (active) and the IC50 [10] was 0.91 µM (active). The IC50 [11] was 0.77 µM (active), the IC50 (Caspase-3 [6]) was 0.755 µM (active) and the IC50 [12] was 0.78 µM (active). The IC50 [7] was 6.06 µM (active) and the IC50 [8] was 9.04 µM (active).
With `COc1cc(N2CC(C(=O)O)CC2=O)c(OC)cc1Cl` (stereo not drawn) the EC50 [13] was > 100 µM (inactive).
With `CN(C)S(=O)(=O)c1ccc2nc(NC(=O)c3c(F)cccc3F)sc2c1` the IC50 (Caspase-3 [9]) was > 99 µM (inactive), the IC50 [10] was > 99 µM (inactive) and the IC50 [11] was > 99 µM (inactive). The IC50 [12] was > 99 µM (inactive).
